Source: patent US20220017471A1, “FUNCTIONALITY INDEPENDENT LABELING OF ORGANIC COMPOUNDS” (Shanghai Tech University, priority 2018, published 2022)
Counter-ions that a name gives are not always drawn.

Target: T1, poly [ADP-ribose] polymerase 1 (PARP1) (Homo sapiens, UniProt P09874)
T1 construct: purchased Sino Biological 11040-H08B
Assay: nDEL affinity selection against PARP-1 (enrichment fold by deep sequencing)
Type: binding
Conditions: hit selection, FIG. 20(b), FIG. 21
Protocol: (§1) The his-tag fused recombinant human PARP-1 (Sino Biological, Cat. #11040-H08B) and human-HSP70 (Sino Biological, Cat. #11660-H07H) were obtained from commercial source. The panning procedure for these two soluble protein were the same. 5 μg of target protein was mixed with Ni-charged MagBeads (GenScript, Cat. #L00295), 5 nM DEL library and 10 μg/mL Salmon sperm DNA. The final volume to adjusted to 100 μL. The mixture was rotated at room temperature for 1.5 h. After washing 5 times by phosphate-buffered saline supplemented 0.05% Tween-20 (PBST), the target protein binding chemical-DNA conjugations were eluted by heating at 95° C. for 10 min in 50 μL elution buffer (20 mM Tris, pH 7.4, 100 mM NaCl). The eluted DEL compounds were amplified by PCR using Takara PrimerSTAR Max DNA Polymerase (Takara, Cat. #R045A). Then the excess primers was removed by Hieff NGS™ smarter DNA clean beads (Yeasen, Cat. #12600E503) and evaluated on 4% DNA agarose gel. The amplified products was subjected for high-throughput sequencing using Illumina HiSeq X10 Analyzer.
The combinatorial chemical library was constructed by three building block sub libraries, containing 6, 46 and 46 chemical building blocks respectively for the first, second and third building block libraries, respectively. Each building block was encoded by a 10-base pair (bp) DNA sequence. The natural products were encoded by a 30-bp DNA sequence, same length as the combinatorial chemical library DNA codes. All the possible combinations (combinatorial chemical compounds) between these three sub libraries were generated by an inhouse java program, which generated a reference DNA encoding library contains 12696 DNA encoding sequences. After sequencing, the Illumina adaptors around the DNA coding sequences were trimmed by CLC genomics workbench version 12 (Qiagen). The left DNA coding sequences were 30 bp in length corresponding to the three DNA sequences of building blocks in 3 rounds of “split-pool” iterations. For each sample, the DNA coding sequences were mapped to the reference DNA encoding compound library. No mismatch was allowed in the mapping. The coding sequences were counted for all the compounds across different samples. The total read-counts of all the compounds in a given sample were calculated. The read-counts for each individual compound were divided by the total counts, multiplied with a constant of 100000.
(§2) NormalizedCountCompoundM,SampleA=CountCompoundM,SampleA/(TotalCountSampleA)*100000
The fold changes of each compound in the after-selection library comparing to the reference library were calculated. For example, if SampleA and Reference library were compared, for the fold change of CompoundM was calculated as:
(§3) FoldChangeCompoundM=NormalizedCountCompoundM,SampleA/NormalizedCountCompoundM,Ref
(§4) The hit criteria of nDEL screening take into account of both the normalized enrichment fold values (y-axis) and deep sequencing read counts (x-axis). Compounds with read counts less than 10 are considered unreliable, thus they are eliminated immediately from DEL before on-target screening. For each DEL library, a baseline enrichment fold is recorded in the absence of target protein, and a normalized enrichment fold value can be calculated for each DEL compound in the library. The cutoff for hits identification is based on a simplified statistical analysis of a highly diverse population of data, which is the sum of average value of enrichment-folds of the whole library (μ) plus 3 times of the standard deviation (σ).
Two target proteins with different cellular locations and biophysical properties were used in nDEL screens. […] The known functional binders for these targets were included in nDEL as internal positive controls, e.g., oridonin for HSP70 and derivatives of olaparib (F001, F002, F003 and F006) for PARP-1.

For `C[C@@H]1O[C@@H](O[C@H]2[C@H](Oc3cc(O)c4c(c3)O[C@H](c3ccc(O)cc3)CC4=O)O[C@H](CO)[C@@H](O)[C@@H]2O)[C@H](O)[C@H](O)[C@H]1O` [Naringin], the “Selected among enriched chemicals in PARP-1 nDEL screening” value was “selected”.

Same assay, conditions: ratio of normalized sequencing counts in presence and absence of target protein; DNA-encoded compound

Going from `O=C1C[C@@H](c2ccc(O[C@@H]3O[C@H](CO)[C@@H](O)[C@H](O)[C@H]3O)cc2)Oc2cc(O)ccc21` [Liquiritin] to `C[C@@H]1O[C@@H](O[C@H]2[C@H](Oc3cc(O)c4c(c3)O[C@H](c3ccc(O)cc3)CC4=O)O[C@H](CO)[C@@H](O)[C@@H]2O)[C@H](O)[C@H](O)[C@H]1O` [Naringin], the “Fold Change, enrichment folds for PARP-1 binder selection” value falls from 2.66 to 2.17.

Compared with `COc1cc2c(cc1O)CC[n+]1cc3c(OC)c(OC)ccc3cc1-2` [Jatrorrhizine], `COc1cc2ccc(=O)oc2cc1O` [Scopoletin] is higher in “Fold Change, enrichment folds for PARP-1 binder selection” value: 2.04 for the first, 2.82 for the second.

Compared with `Oc1cc(O)c2c(c1)O[C@H](c1cc(O)c(O)c(O)c1)[C@H](O)C2` [Epigallocatechin, epigallocatechin], `O=C(O[C@@H]1Cc2c(O)cc(O)cc2O[C@@H]1c1ccc(O)c(O)c1)c1cc(O)c(O)c(O)c1` [(−)-Epicatechin gallate, (−)- Epicatechingallate] is higher in “Fold Change, enrichment folds for PARP-1 binder selection” value: 2.53 for the first, 2.81 for the second.

Going from `COc1cc2c(cc1O)CC[n+]1cc3c(OC)c(OC)ccc3cc1-2` [Jatrorrhizine hydrochloride] to `COc1cc2ccc(=O)oc2c(O)c1O` [Fraxetin], the “Fold Change, enrichment folds for PARP-1 binder selection” value falls from 2.23 to 2.01.

First: O=c1ccc2ccc(O)c(O)c2o1 [Daphnetin]
Second: O=C1c2ccccc2C(=O)c2c1ccc(O)c2O [Alizarin]
The “Fold Change, enrichment folds for PARP-1 binder selection” value of the first is higher: 2.17 for the first, 2.02 for the second.

Going from `COC(=O)Nc1nc2ccc(C(=O)c3cccs3)cc2[nH]1` [Nocodazole, reference compound] to `CC1=CC(=O)c2c(O)cccc2C1=O` [Plumbagin], the “Fold Change, enrichment folds for PARP-1 binder selection” value rises from 2.06 to 2.97.

Going from `CNCC(O)c1ccc(O)cc1` (stereo not drawn) [Synephrine] to `Cn1cnc2c1c(=O)[nH]c(=O)n2C` [Theobromine, reference compound], the “Fold Change, enrichment folds for PARP-1 binder selection” value rises from 2.17 to 2.42.

Target: T2, heat shock 70 kDa protein (HSP70) (Homo sapiens, UniProt P0DMV8)
T2 construct: purchased Sino Biological 11660-H07H
Assay: nDEL affinity selection against HSP70 (enrichment fold by deep sequencing)
Type: binding
Conditions: ratio of normalized sequencing counts in presence and absence of target protein; DNA-encoded compound
Protocol: as §1, with “The” for “The his-tag fused recombinant human PARP-1 (Sino Biological, Cat. #11040-H08B) and human-HSP70 (Sino Biological, Cat. #11660-H07H) were obtained from commercial source. The”
The combinatorial chemical library was constructed by three building block sub libraries, containing 6, 46 and 46 chemical building blocks respectively for the first, second and third building block libraries, respectively. Each building block was encoded by a 10-base pair (bp) DNA sequence. The natural products were encoded by a 30-bp DNA sequence, same length as the combinatorial chemical library DNA codes. […] After sequencing, the Illumina adaptors around the DNA coding sequences were trimmed by CLC genomics workbench version 12 (Qiagen). The left DNA coding sequences were 30 bp in length corresponding to the three DNA sequences of building blocks in 3 rounds of “split-pool” iterations. For each sample, the DNA coding sequences were mapped to the reference DNA encoding compound library. No mismatch was allowed in the mapping. The coding sequences were counted for all the compounds across different samples. The total read-counts of all the compounds in a given sample were calculated. The read-counts for each individual compound were divided by the total counts, multiplied with a constant of 100000.
as §2
The fold changes of each compound in the after-selection library comparing to the reference library were calculated.
as §3, §4
Two target proteins with different cellular locations and biophysical properties were used in nDEL screens. […] The known functional binders for these targets were included in nDEL as internal positive controls, e.g., oridonin for HSP70 and derivatives of olaparib (F001, F002, F003 and F006) for PARP-1. To account for the non-uniform distribution of DNA barcodes in nDEL, a blank screen of nDEL in the absence of target proteins but presence of immobilization matrix beads was carried out first and followed by deep-sequencing to establish the baseline distribution of barcodes in the library. All screening data were analyzed using the method described by Decurtins et al., Nat Protoc. […] The corresponding DNA sequence of each nDEL compound were tallied based on its sequencing counts. The enrichment fold is calculated as the ratio of normalized sequencing counts in the presence and absence of target protein.

Going from `O=C1C[C@@H](c2ccc(O[C@@H]3O[C@H](CO)[C@@H](O)[C@H](O)[C@H]3O)cc2)Oc2cc(O)ccc21` [Liquiritin] to `c1coc(CNc2ncnc3[nH]cnc23)c1` [Kinetin], the “Enrichment Fold, HSP70 binder selection” value falls from 3.9 to 2.8.

Compared with `Cn1c(=O)c2c(ncn2CC(=O)O)n(C)c1=O` [Theophylline-7-acetic acid, Theophylline-7-acetic acid, reference compound], `O=C1C[C@@H](c2ccc(O)cc2)Oc2cc(O)ccc21` [Liquiritigenin] is lower in “Enrichment Fold, HSP70 binder selection” value: 3.3 for the first, 2.7 for the second.

Compared with `COc1cc2c(cc1O)CC[n+]1cc3c(OC)c(OC)ccc3cc1-2` [Jatrorrhizine], `C[C@H]1[C@H](OC(=O)CCC(=O)O)O[C@@H]2O[C@@]3(C)CC[C@H]4[C@H](C)CC[C@@H]1[C@@]24OO3` [Artesunate] is lower in “Enrichment Fold, HSP70 binder selection” value: 3.7 for the first, 2.4 for the second.

Compared with `c1ccc(CNc2ncnc3nc[nH]c23)cc1` [Benzyladenine], `C[C@@H]1O[C@@H](O[C@H]2[C@H](Oc3cc(O)c4c(c3)O[C@H](c3ccc(O)cc3)CC4=O)O[C@H](CO)[C@@H](O)[C@@H]2O)[C@H](O)[C@H](O)[C@H]1O` [Naringin] is higher in “Enrichment Fold, HSP70 binder selection” value: 3.6 for the first, 4.5 for the second.

Going from `Oc1cc(O)c2c(c1)O[C@H](c1cc(O)c(O)c(O)c1)[C@H](O)C2` [Epigallocatechin, epigallocatechin] to `O=C(CCc1ccc(O)cc1)c1c(O)cc(O)cc1O[C@@H]1O[C@H](CO)[C@@H](O)[C@H](O)[C@H]1O` [Phlorizin], the “Enrichment Fold, HSP70 binder selection” value falls from 4.3 to 3.8.

Going from `COc1cc2c(cc1O)CC[n+]1cc3c(OC)c(OC)ccc3cc1-2` [Jatrorrhizine hydrochloride] to `O=C(O)c1ccc(O)c(O)c1` [Protocatechuic acid], the “Enrichment Fold, HSP70 binder selection” value falls from 4.5 to 3.8.

Going from `O=C(O[C@@H]1Cc2c(O)cc(O)cc2O[C@@H]1c1ccc(O)c(O)c1)c1cc(O)c(O)c(O)c1` [(−)-Epicatechin gallate, (−)- Epicatechingallate] to `COc1cc(C(=O)O[C@H]2[C@@H]3C=CO[C@@H](O[C@@H]4O[C@H](CO)[C@@H](O)[C@H](O)[C@H]4O)[C@@H]3[C@@]3(CO)O[C@@H]23)ccc1O` [Picroside II], the “Enrichment Fold, HSP70 binder selection” value falls from 5.0 to 4.0.

Going from `COc1c(O)cc2c(c1O)[C@@H]1O[C@H](CO)[C@@H](O)[C@H](O)[C@H]1OC2=O` [Bengenin] to `Oc1cc(O)c2c(c1)O[C@H](c1ccc(O)c(O)c1)[C@@H](O)C2` [(+) Catechin], the “Enrichment Fold, HSP70 binder selection” value falls from 3.6 to 2.7.

Compared with `COC(=O)c1ccc(O)c(O)c1` [Methyl protocatechuate], `O=c1ccc2ccc(O)c(O)c2o1` [Daphnetin] is higher in “Enrichment Fold, HSP70 binder selection” value: 3.6 for the first, 3.9 for the second.

First: COc1ccc(-c2coc3cc(O)cc(O)c3c2=O)cc1 [Biochanin A]
Second: CC(=O)c1c(O)cc(O)cc1O [Phloracetophenone]
The “Enrichment Fold, HSP70 binder selection” value of the first is higher: 3.7 for the first, 3.5 for the second.

First: O=c1c(O)c(-c2ccc(O)c(O)c2)oc2cc(O)cc(O)c12 [quercetin, Quercetin]
Second: O=c1cc(-c2ccccc2)oc2cc(O)c(O)c(O)c12 [Baicalein]
The “Enrichment Fold, HSP70 binder selection” value of the first is lower: 2.8 for the first, 3.6 for the second.

Going from `COC(=O)Nc1nc2ccc(C(=O)c3cccs3)cc2[nH]1` [Nocodazole, reference compound] to `CNCC(O)c1ccc(O)cc1` (stereo not drawn) [Synephrine], the “Enrichment Fold, HSP70 binder selection” value falls from 3.9 to 3.2.

First: O=c1ccc2cc(O)c(O)cc2o1 [Esculetin]
Second: COc1cc2ccc(=O)oc2c(O)c1O [Fraxetin]
The “Enrichment Fold, HSP70 binder selection” value of the first is higher: 4.1 for the first, 3.3 for the second.

Compared with `COc1cc2ccc(=O)oc2cc1O` [Scopoletin], `Cc1c(F)cccc1NC(=O)Nc1ccc(Cl)c(S(=O)(=O)[C@H]2CCCNC2)c1O` [Danirixin] is lower in “Enrichment Fold, HSP70 binder selection” value: 6.0 for the first, 2.9 for the second.

Compared with `O=c1c2ccccc2nc2n1CCc1c-2[nH]c2ccccc12` [rutaecarpin], `O=c1ccc2ccc(O)cc2o1` [7-Hydroxycoumarin] is higher in “Enrichment Fold, HSP70 binder selection” value: 3.2 for the first, 4.2 for the second.

First: COC1=C[C@@H]2[C@@H]3Cc4ccc(OC)c(O)c4[C@]2(CCN3C)CC1=O [sinomenine]
Second: Cc1ncc(CO)c(CO)c1O [Pyridoxine, reference compound]
The “Enrichment Fold, HSP70 binder selection” value of the first is lower: 3.2 for the first, 3.4 for the second.

Going from `CC1=CC(=O)c2c(O)cccc2C1=O` [Plumbagin] to (+)-Catechin Hydrate, the “Enrichment Fold, HSP70 binder selection” value falls from 4.4 to 3.8.

`O=C1c2ccccc2C(=O)c2c1ccc(O)c2O` [Alizarin] and `Cn1cnc2c1c(=O)[nH]c(=O)n2C` [Theobromine, reference compound] are the same in “Enrichment Fold, HSP70 binder selection” value: 4.3 for the first, 4.3 for the second.
